Measured values from patent US8143192B2, “Methods for increasing the resistance of plants to hypoxic conditions” (Bayer Cropscience N.V., priority 2005, dated 2012).
Read-outs that look alike come from different tables or passages of the source.

Tests used:
[1] = system: Arabidopsis thaliana cv. C24 plants; assay: Depth of Arabidopsis root growth in growth medium after application of 6-chloronicotinic acid (6-CNA); format: in vivo; settings: for Root depth, mean: after three weeks, untreated mean 2.031034
Experimental: Sterilization of Arabidopsis seeds: 2 min.
Low light overnight to 24 hours.
Plants are grown at 23° C. 30-50 μEinstein s^−1m^−2. 12 hours light-12 hours dark. (See FIG. 1)

[2] = system: Arabidopsis thaliana cv. C24 plants; settings: 0.7% Difco agar; for Root depth, mean: after three weeks, untreated mean 1.9475, *p < 0.01
Experimental: A container (1) with a seal (2) is filled with a transparent or translucent growth medium (3), such as 0.4% agar-water or 0.7% agar-water, to which additional test-compounds may be added. One pregerminated seed is added to the tube and allowed to grow for three weeks. After three weeks of growth in vertical position, the root depth (5) of the plant (4) is measured from the top of the medium to the lowest point of the roots.
Germination medium: Half concentrated Murashige and Skoog salts; B5 vitamins; 1.5% sucrose; pH 5.8; 0.4% Difco agar.
Sterilization of Arabidopsis seeds: 2 min. 70% ethanol; 10 min. bleach (6% active chlorine)+1 drop Tween 20 for 20 ml solution; wash 5 times with sterile tap water; sterilization is done in 2 ml eppendorf tubes. Arabidopsis seeds sink to the bottom of the tube, allowing removal of the liquids by means of a 1 ml pipetman.
Pregermination of seeds: In 9 cm Optilux Petridishes (Falcon) containing 10 ml sterile tap water. Low light overnight to 24 hours.
Growing of Arabidopsis plants: Seeds are sown in 25×150 mm glass tubes (Sigma C5916) with natural (transparent) colored closure (Sigma C5791) containing ±34 ml germination medium: 1 seed/tube. The tubes are put in the two outer rows of tube holders for 40 tubes (VWR nalg5970-0025) wrapped in aluminium foil so that the roots can grow in the dark. Plants are grown at 23° C. 30-50 μEinstein s^−1m^−2. 12 hours light-12 hours dark.
After three weeks, the root depth is measured from the surface of the medium to the lowest point of root growth.

| SMILES | Root depth, mean ([1]; 1 mg/L 6-CNA in germination medium, *p < 0.01) [mm] | Root depth, mean ([1]; 5 mg/L 6-CNA in germination medium, **p < 0.05) [mm] | Root protrusion into growth medium compared to non-treated plants ([1]; 1 and 5 mg/l 6-CNA, three weeks) | Root depth, mean ([2]; 50 mg/L imidacloprid in germination medium) [mm] | Root depth, mean ([2]; 100 mg/L imidacloprid in germination medium) [mm] | Root protrusion into growth medium compared to non-treated plants ([2]; 50 and 100 mg/l imidacloprid, three weeks) |
| --- | --- | --- | --- | --- | --- | --- |
| O=C(O)c1ccc(Cl)nc1 [6-CNA, 6-chloronicotinic acid] | 2.18 | 2.118 | protruded deeper in the growth medium | – | – | – |
| O=[N+]([O-])/N=C1\NCCN1Cc1ccc(Cl)nc1 [imidacloprid] | – | – | – | 2.1875 | 2.2725 | protruded deeper in the growth medium |
